Assay results: ChEMBL document CHEMBL3885881, “DrugMatrix”

Species on record: Rattus norvegicus
Assay: DrugMatrix - Regimen: Daily Repeat
Format: toxicity, organism-based, Sprague-Dawley
Design: regimen Daily Repeat, gender Male, age 6-8 weeks
Conditions: in vivo, po, route oral GAVAGE, vehicle 100 % WATER; for ABSOLUTE BASOPHIL / ABSOLUTE EOSINOPHIL / ABSOLUTE LYMPHOCYTE / ABSOLUTE MONOCYTE / ABSOLUTE SEGMENTED NEUTROPHIL / BASOPHIL / EOSINOPHIL / ERYTHROCYTE COUNT / HEMATOCRIT / HEMOGLOBIN / LEUKOCYTE COUNT / LYMPHOCYTE / MEAN CORPUSCULAR HEMOGLOBIN / MEAN CORPUSCULAR HEMOGLOBIN CONCENTRATION / MEAN CORPUSCULAR VOLUME / MONOCYTE / NEUTROPHIL / NUCLEATED RED BLOOD CELLS / PLATELET COUNT: tissue Blood; for ALANINE AMINOTRANSFERASE / ALBUMIN / ALKALINE PHOSPHATASE / ASPARTATE AMINOTRANSFERASE / BLOOD UREA NITROGEN / CARBON DIOXIDE / CHLORIDE / CHOLESTEROL / CREATINE PHOSPHOKINASE / CREATININE / GLUCOSE / LACTATE DEHYDROGENASE / LIPASE / PHOSPHORUS / POTASSIUM / SODIUM / TOTAL BILIRUBIN / TOTAL PROTEIN / URIC ACID: tissue Plasma
[1] = 4.5 mg/kg, 120 h, dose level Low, time 5 day
[2] = 45 mg/kg, 72 h, dose level High, time 3 day
[3] = 45 mg/kg, 120 h, dose level High, time 5 day

In the case of `NN` [HYDRAZINE], the “ABSOLUTE BASOPHIL” value [1] was 0 CELLS/uL, the “ABSOLUTE EOSINOPHIL” value [1] was 61.33 CELLS/uL and the “ABSOLUTE LYMPHOCYTE” value [1] was 9152.67 CELLS/uL. The “ABSOLUTE MONOCYTE” value [1] was 216 CELLS/uL, the “ABSOLUTE SEGMENTED NEUTROPHIL” value [1] was 1236.67 CELLS/uL and the BASOPHIL [1] was 0%. For the same compound, the EOSINOPHIL [1] was 0.67%, the “ERYTHROCYTE COUNT” value [1] was 5.22 x10E6/uL and the HEMATOCRIT [1] was 32.97%. The HEMOGLOBIN [1] was 13.03 G/DL, the “LEUKOCYTE COUNT” value [1] was 10.67 x10E3/uL and the LYMPHOCYTE [1] was 85.33%. The “MEAN CORPUSCULAR HEMOGLOBIN” value [1] was 25 pg, the “MEAN CORPUSCULAR HEMOGLOBIN CONCENTRATION” value [1] was 39.57 G/DL and the “MEAN CORPUSCULAR VOLUME” value [1] was 63.23 fL. The MONOCYTE [1] was 2%, the NEUTROPHIL [1] was 12% and the “NUCLEATED RED BLOOD CELLS” value [1] was 0 /100WBC. The “PLATELET COUNT” value [1] was 1367.67 x10E3/uL, the “ALANINE AMINOTRANSFERASE” value [1] was 34.33 u/L and the ALBUMIN [1] was 4.27 G/DL. For the same compound, the “ALKALINE PHOSPHATASE” value [1] was 357 u/L, the “ASPARTATE AMINOTRANSFERASE” value [1] was 88.33 u/L and the “BLOOD UREA NITROGEN” value [1] was 18.33 mg/dL. The “CARBON DIOXIDE” value [1] was 28 mmol/L, the CHLORIDE [1] was 100 MEQ/L and the CHOLESTEROL [1] was 80 mg/dL. For the same compound, the “CREATINE PHOSPHOKINASE” value [1] was 469 u/L, the CREATININE [1] was 0.17 mg/dL and the GLUCOSE [1] was 135.67 mg/dL. For the same compound, the “LACTATE DEHYDROGENASE” value [1] was 538.33 u/L, the LIPASE [1] was 11 u/L and the PHOSPHORUS [1] was 11.77 mg/dL. The POTASSIUM [1] was 5.73 MEQ/L, the SODIUM [1] was 142.13 MEQ/L and the “TOTAL BILIRUBIN” value [1] was 0.13 mg/dL. For the same compound, the “TOTAL PROTEIN” value [1] was 5.87 G/DL, the “URIC ACID” value [1] was 1.37 mg/dL and the “ABSOLUTE BASOPHIL” value [2] was 0 CELLS/uL. The “ABSOLUTE EOSINOPHIL” value [2] was 101.33 CELLS/uL, the “ABSOLUTE LYMPHOCYTE” value [2] was 9888 CELLS/uL and the “ABSOLUTE MONOCYTE” value [2] was 143.33 CELLS/uL. For the same compound, the “ABSOLUTE SEGMENTED NEUTROPHIL” value [2] was 634 CELLS/uL, the BASOPHIL [2] was 0% and the EOSINOPHIL [2] was 1%. For the same compound, the “ERYTHROCYTE COUNT” value [2] was 5.85 x10E6/uL, the HEMATOCRIT [2] was 35.23% and the HEMOGLOBIN [2] was 13.87 G/DL. For the same compound, the “LEUKOCYTE COUNT” value [2] was 10.77 x10E3/uL, the LYMPHOCYTE [2] was 91.67% and the “MEAN CORPUSCULAR HEMOGLOBIN” value [2] was 23.77 pg. For the same compound, the “MEAN CORPUSCULAR HEMOGLOBIN CONCENTRATION” value [2] was 39.43 G/DL, the “MEAN CORPUSCULAR VOLUME” value [2] was 60.27 fL and the MONOCYTE [2] was 1.33%. For the same compound, the NEUTROPHIL [2] was 6%, the “NUCLEATED RED BLOOD CELLS” value [2] was 0.33 /100WBC and the “PLATELET COUNT” value [2] was 1202 x10E3/uL. For the same compound, the “ALANINE AMINOTRANSFERASE” value [2] was 14 u/L, the ALBUMIN [2] was 4.07 G/DL and the “ALKALINE PHOSPHATASE” value [2] was 403.33 u/L. For the same compound, the “ASPARTATE AMINOTRANSFERASE” value [2] was 77.67 u/L, the “BLOOD UREA NITROGEN” value [2] was 17.67 mg/dL and the “CARBON DIOXIDE” value [2] was 31.33 mmol/L. The CHLORIDE [2] was 98.33 MEQ/L, the CHOLESTEROL [2] was 44 mg/dL and the “CREATINE PHOSPHOKINASE” value [2] was 676.33 u/L. For the same compound, the CREATININE [2] was 0.11 mg/dL, the GLUCOSE [2] was 133.33 mg/dL and the “LACTATE DEHYDROGENASE” value [2] was 533 u/L. For the same compound, the LIPASE [2] was 11 u/L, the PHOSPHORUS [2] was 11.23 mg/dL and the POTASSIUM [2] was 6.63 MEQ/L. For the same compound, the SODIUM [2] was 138.67 MEQ/L, the “TOTAL BILIRUBIN” value [2] was 0.13 mg/dL and the “TOTAL PROTEIN” value [2] was 5.5 G/DL. For the same compound, the “URIC ACID” value [2] was 1.6 mg/dL, the “ABSOLUTE BASOPHIL” value [3] was 0 CELLS/uL and the “ABSOLUTE EOSINOPHIL” value [3] was 63.33 CELLS/uL. The “ABSOLUTE LYMPHOCYTE” value [3] was 8413.33 CELLS/uL, the “ABSOLUTE MONOCYTE” value [3] was 93 CELLS/uL and the “ABSOLUTE SEGMENTED NEUTROPHIL” value [3] was 730.33 CELLS/uL. For the same compound, the BASOPHIL [3] was 0%, the EOSINOPHIL [3] was 0.67% and the “ERYTHROCYTE COUNT” value [3] was 5.35 x10E6/uL. The HEMATOCRIT [3] was 31.4%, the HEMOGLOBIN [3] was 12.23 G/DL and the “LEUKOCYTE COUNT” value [3] was 9.3 x10E3/uL. The LYMPHOCYTE [3] was 90.67%, the “MEAN CORPUSCULAR HEMOGLOBIN” value [3] was 22.9 pg and the “MEAN CORPUSCULAR HEMOGLOBIN CONCENTRATION” value [3] was 38.97 G/DL. For the same compound, the “MEAN CORPUSCULAR VOLUME” value [3] was 58.77 fL, the MONOCYTE [3] was 1% and the NEUTROPHIL [3] was 7.67%. For the same compound, the “NUCLEATED RED BLOOD CELLS” value [3] was 0 /100WBC, the “PLATELET COUNT” value [3] was 1463.33 x10E3/uL and the “ALANINE AMINOTRANSFERASE” value [3] was 14.67 u/L. For the same compound, the ALBUMIN [3] was 4 G/DL, the “ALKALINE PHOSPHATASE” value [3] was 346 u/L and the “ASPARTATE AMINOTRANSFERASE” value [3] was 75.67 u/L. For the same compound, the “BLOOD UREA NITROGEN” value [3] was 18.67 mg/dL, the “CARBON DIOXIDE” value [3] was 25.33 mmol/L and the CHLORIDE [3] was 99 MEQ/L. The CHOLESTEROL [3] was 50.67 mg/dL, the “CREATINE PHOSPHOKINASE” value [3] was 391.33 u/L and the CREATININE [3] was 0.11 mg/dL. The GLUCOSE [3] was 153.33 mg/dL, the “LACTATE DEHYDROGENASE” value [3] was 326 u/L and the LIPASE [3] was 11.33 u/L. The PHOSPHORUS [3] was 11.23 mg/dL, the POTASSIUM [3] was 6.42 MEQ/L and the SODIUM [3] was 139.93 MEQ/L. For the same compound, the “TOTAL BILIRUBIN” value [3] was 0.2 mg/dL, the “TOTAL PROTEIN” value [3] was 5.37 G/DL and the “URIC ACID” value [3] was 1.4 mg/dL.
